# Measured values taken from paper PMC5681922, “Systemic Responses of Multidrug-Resistant Pseudomonas aeruginosa and Acinetobacter baumannii Following Exposure to the Antimicrobial Peptide Cathelicidin-BF Imply Multiple Intracellular Targets” (Frontiers in Cellular and Infection Microbiology, 2017).
# Where two headings read alike, the source gives them in different places. No end group written: not given here.
# Tests used:
# [1] = test system: P. aeruginosa 1409
# [2] = test system: 293FT (human embryonic kidney cells); settings: XTT, 24 h, serum-free DMEM
# Method: (§1) Cell viability was measured using cell proliferation kit II (XTT) (Roche). Cells, including A549 (adenocarcinomic human alveolar basal epithelial cells), 293FT (human embryonic kidney cells) and L929 (murine fibroblast cells), were cultured in Dulbecco's […] (DMEM) supplemented with 10% fetal bovine serum, 100 U penicillin/mL, and 100 μg streptomycin/mL in a humidified 5% CO2 atmosphere at 37°C. After digestion with trypsin, the cells were diluted in serum-free DMEM without phenol red to a final concentration of 2 × 10^5 cell/mL, seeded in 96 well plates (100 μl/well) and cultured overnight until adhesion. Cathelicidin-BF dissolved in serum-free DMEM without phenol red was added to wells, and the plates were incubated for 24 h as previously described. Subsequent procedures were performed according to the kit. Briefly, XTT labeling reagent (sodium 3′-[1-(phenylaminocarbonyl)-3,4-tetrazolium]-bis-4-methoxy-6-nitro) benzene sulfonic acid hydrate) in Roswell Park Memorial Institute (RPMI) 1640 medium without phenol red was mixed with electron-coupling reagent PMS (N-methyl dibenzopyrazine methyl sulfate) at a volume ratio of 50:1 to make the working solution. Fifty microliters of the XTT labeling mixture was added to each well and incubated at the same conditions for 6 h. Absorbance [A492 nm-A690 nm] stands for the quantification of viable cells.
# (§2) Figure 2 Cytotoxicity of cathelicidin-BF. Hemolysis and cell viability assays were conducted to test the cytotoxicity of cathelicidin-BF to mammalian cells.
# [3] = test system: L929 (murine fibroblast cells); settings: 400 mg/L; XTT, 24 h, serum-free DMEM
# Method: as §1, §2
# [4] = test system: A549 (adenocarcinomic human alveolar basal epithelial cells); settings: 400 mg/L; XTT, 24 h, serum-free DMEM
# Method: as §1, §2
# [5] = treated vs untreated, iTRAQ, cathelicidin-BF change not categorized as differentially expressed
sequence,measurement,setting,value
KFFRKLKKSVKKRAKEFFKKPRVIGVSIPF [cathelicidin-BF],Pa-Ca/Pa-C,[1]; iTRAQ abundance ratio Pa-Cathelicidin/Pa-Control of protein Q9HYK2 (GN=PA3402),1.136
same,Pa-Ca/Pa-C,[1]; iTRAQ abundance ratio Pa-Cathelicidin/Pa-Control of protein Q9HYU6 (GN=PA3297),0.9414
same,Pa-Ca/Pa-C,[1]; iTRAQ abundance ratio Pa-Cathelicidin/Pa-Control of protein Q9HYV7 (GN=PA3286),0.9022
same,Pa-Ca/Pa-C,[1]; iTRAQ abundance ratio Pa-Cathelicidin/Pa-Control of protein Q9HYZ3 (GN=apeB),1.0565
same,Pa-Ca/Pa-C,[1]; iTRAQ abundance ratio Pa-Cathelicidin/Pa-Control of protein Q9HZD8 (GN=PA3070),0.9912
same,Pa-Ca/Pa-C,[1]; iTRAQ abundance ratio Pa-Cathelicidin/Pa-Control of protein Q9HZF4 (GN=PA3054),0.9528
same,Pa-Ca/Pa-C,[1]; iTRAQ abundance ratio Pa-Cathelicidin/Pa-Control of protein Q9HZG0 (GN=rlmL),0.9995
same,Pa-Ca/Pa-C,[1]; iTRAQ abundance ratio Pa-Cathelicidin/Pa-Control of protein Q9HZG4 (GN=PA3044),1.123
same,Pa-Ca/Pa-C,[1]; iTRAQ abundance ratio Pa-Cathelicidin/Pa-Control of protein Q9HZM6 (GN=ptpA),0.8326
same,Pa-Ca/Pa-C,[1]; iTRAQ abundance ratio Pa-Cathelicidin/Pa-Control of protein Q9HZN0 (GN=PA2974),1.056
same,Pa-Ca/Pa-C,[1]; iTRAQ abundance ratio Pa-Cathelicidin/Pa-Control of protein Q9HZY0 (GN=mttC),1.0109
same,Pa-Ca/Pa-C,[1]; iTRAQ abundance ratio Pa-Cathelicidin/Pa-Control of protein Q9I0F5 (GN=PA2683),1.0558
same,Pa-Ca/Pa-C,[1]; iTRAQ abundance ratio Pa-Cathelicidin/Pa-Control of protein Q9I0I2 (GN=PA2656),1.043
same,Pa-Ca/Pa-C,[1]; iTRAQ abundance ratio Pa-Cathelicidin/Pa-Control of protein Q9I0Q7 (GN=kynA),0.9342
same,Pa-Ca/Pa-C,[1]; iTRAQ abundance ratio Pa-Cathelicidin/Pa-Control of protein Q9I0R5 (GN=PA2571),0.9216
same,Pa-Ca/Pa-C,[1]; iTRAQ abundance ratio Pa-Cathelicidin/Pa-Control of protein Q9I0Z9 (GN=PA2483),0.8854
same,Pa-Ca/Pa-C,[1]; iTRAQ abundance ratio Pa-Cathelicidin/Pa-Control of protein Q9I1H9 (GN=PA2296),0.9095
same,Pa-Ca/Pa-C,[1]; iTRAQ abundance ratio Pa-Cathelicidin/Pa-Control of protein Q9I1I4 (GN=PA2291),1.111
same,Pa-Ca/Pa-C,[1]; iTRAQ abundance ratio Pa-Cathelicidin/Pa-Control of protein Q9I1M1 (GN=bkdA2),1.005
same,Pa-Ca/Pa-C,[1]; iTRAQ abundance ratio Pa-Cathelicidin/Pa-Control of protein Q9I2G3 (GN=PA1941),0.9926
same,Pa-Ca/Pa-C,[1]; iTRAQ abundance ratio Pa-Cathelicidin/Pa-Control of protein Q9I2R3 (GN=PA1832),0.9008
same,Pa-Ca/Pa-C,[1]; iTRAQ abundance ratio Pa-Cathelicidin/Pa-Control of protein Q9I2T1 (GN=gloB),0.964
same,Pa-Ca/Pa-C,[1]; iTRAQ abundance ratio Pa-Cathelicidin/Pa-Control of protein Q9I2Y1 (GN=pabB),0.998
same,Pa-Ca/Pa-C,[1]; iTRAQ abundance ratio Pa-Cathelicidin/Pa-Control of protein Q9I3F3 (GN=tusA),0.8155
same,Pa-Ca/Pa-C,[1]; iTRAQ abundance ratio Pa-Cathelicidin/Pa-Control of protein Q9I3J6 (GN=PA1517),1.049
same,Pa-Ca/Pa-C,[1]; iTRAQ abundance ratio Pa-Cathelicidin/Pa-Control of protein Q9I3L0 (GN=gcl),0.9901
same,Pa-Ca/Pa-C,[1]; iTRAQ abundance ratio Pa-Cathelicidin/Pa-Control of protein Q9I4B6 (GN=PA1222),0.8647
same,Pa-Ca/Pa-C,[1]; iTRAQ abundance ratio Pa-Cathelicidin/Pa-Control of protein Q9I4H9 (GN=PA1158),1.038
same,Pa-Ca/Pa-C,[1]; iTRAQ abundance ratio Pa-Cathelicidin/Pa-Control of protein Q9I4N6 (GN=fliS),1.132
same,Pa-Ca/Pa-C,[1]; iTRAQ abundance ratio Pa-Cathelicidin/Pa-Control of protein Q9I4N9 (GN=PA1090),1.038
same,Pa-Ca/Pa-C,[1]; iTRAQ abundance ratio Pa-Cathelicidin/Pa-Control of protein Q9I4R3 (GN=PA1061),0.9798
same,Pa-Ca/Pa-C,[1]; iTRAQ abundance ratio Pa-Cathelicidin/Pa-Control of protein Q9I5M1 (GN=migA),0.9698
same,Pa-Ca/Pa-C,[1]; iTRAQ abundance ratio Pa-Cathelicidin/Pa-Control of protein Q9I5U7 (GN=apaH),1.014
same,Pa-Ca/Pa-C,[1]; iTRAQ abundance ratio Pa-Cathelicidin/Pa-Control of protein Q9I5V3 (GN=cca),0.7612
same,Pa-Ca/Pa-C,[1]; iTRAQ abundance ratio Pa-Cathelicidin/Pa-Control of protein Q9I6B3 (GN=trmB),1.011
same,Pa-Ca/Pa-C,[1]; iTRAQ abundance ratio Pa-Cathelicidin/Pa-Control of protein Q9I7A7 (GN=PA0020),1.051
same,Pa-Ca/Pa-C,[1]; iTRAQ abundance ratio Pa-Cathelicidin/Pa-Control of protein Q9I022 (GN=PA2821),0.7721
same,Pa-Ca/Pa-C,[1]; iTRAQ abundance ratio Pa-Cathelicidin/Pa-Control of protein Q9I164 (GN=PA2417),1.295
same,Pa-Ca/Pa-C,[1]; iTRAQ abundance ratio Pa-Cathelicidin/Pa-Control of protein Q9I233 (GN=PA2082),0.8885
same,Pa-Ca/Pa-C,[1]; iTRAQ abundance ratio Pa-Cathelicidin/Pa-Control of protein Q9I300 (GN=PA1737),1.149
same,Pa-Ca/Pa-C,[1]; iTRAQ abundance ratio Pa-Cathelicidin/Pa-Control of protein Q9I342 (GN=mtnB),1.093
same,Pa-Ca/Pa-C,[1]; iTRAQ abundance ratio Pa-Cathelicidin/Pa-Control of protein Q9I468 (GN=cobC),0.7767
same,Pa-Ca/Pa-C,[1]; iTRAQ abundance ratio Pa-Cathelicidin/Pa-Control of protein Q9I538 (GN=PA0919),0.9631
same,Pa-Ca/Pa-C,[1]; iTRAQ abundance ratio Pa-Cathelicidin/Pa-Control of protein Q9I655 (GN=creB),0.9495
same,Pa-Ca/Pa-C,[1]; iTRAQ abundance ratio Pa-Cathelicidin/Pa-Control of protein Q9I656 (GN=PA0462),1.049
same,Pa-Ca/Pa-C,[1]; iTRAQ abundance ratio Pa-Cathelicidin/Pa-Control of protein Q9I673 (GN=PA0444),0.9127
same,Pa-Ca/Pa-C,[1]; iTRAQ abundance ratio Pa-Cathelicidin/Pa-Control of protein Q9I688 (GN=PA0429),1.007
same,Pa-Ca/Pa-C,[1]; iTRAQ abundance ratio Pa-Cathelicidin/Pa-Control of protein Q9I700 (GN=bauA),0.9294
same,Pa-Ca/Pa-C,[1]; iTRAQ abundance ratio Pa-Cathelicidin/Pa-Control of protein Q9X6V8 (GN=PA3998),1.122
same,Pa-Ca/Pa-C,[1]; iTRAQ abundance ratio Pa-Cathelicidin/Pa-Control of protein Q51426 (GN=ruvB),1.14
same,expression of protein Q9HTV3 (3-octaprenyl-4-hydroxybenzoate carboxy-lyase),[1]; [5],downregulated
same,expression of protein Q9I298 (putative 3-methylglutaconyl-ConA hydratase),[1]; [5],downregulated
same,expression of protein Q9I5V3 (multifunctional CCA protein),"[1]; treated vs untreated, iTRAQ, levofloxacin change not categorized as differentially expressed",downregulated
same,concentrations at which proliferation of 293FT cells was inhibited,[2],> 50 µg/mL
same,effect on L929 cells,[3],intact
same,effect on A549 cells,[4],intact
